The target of data set [1] is cytochrome bc1 (Mycobacterium tuberculosis, UniProt P9WP37). Conditions: by inhibiting cytochrome bc1 activity; Pethe et al., Nature Medicine 2013; cited from earlier work.
Data set [2] is described as follows: Solubility of Q203 in aqueous solutions (background statement). It counts as physicochemical.

Chain of cytochrome bc1 (P9WP37 whole entry, looked up): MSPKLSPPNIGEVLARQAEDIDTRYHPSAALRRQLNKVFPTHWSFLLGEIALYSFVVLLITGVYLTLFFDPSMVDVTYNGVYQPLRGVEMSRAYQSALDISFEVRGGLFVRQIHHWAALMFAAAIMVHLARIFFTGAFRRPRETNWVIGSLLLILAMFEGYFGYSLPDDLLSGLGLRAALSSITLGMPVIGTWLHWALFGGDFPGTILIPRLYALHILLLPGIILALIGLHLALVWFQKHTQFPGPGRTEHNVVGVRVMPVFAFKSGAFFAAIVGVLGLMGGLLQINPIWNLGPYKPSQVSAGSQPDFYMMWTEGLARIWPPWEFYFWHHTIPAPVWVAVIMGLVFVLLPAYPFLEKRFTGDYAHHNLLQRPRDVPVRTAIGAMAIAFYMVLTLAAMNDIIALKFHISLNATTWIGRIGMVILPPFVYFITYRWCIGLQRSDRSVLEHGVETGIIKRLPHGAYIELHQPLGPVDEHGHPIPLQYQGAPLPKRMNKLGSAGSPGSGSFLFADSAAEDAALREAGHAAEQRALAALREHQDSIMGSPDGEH

Turning to `CCc1nc2ccc(Cl)cn2c1C(=O)NCc1ccc(N2CCC(c3ccc(OC(F)(F)F)cc3)CC2)cc1` [Example Q203, 6-chloro-2-ethyl-N-(4-(4-(4-(trifluoromethoxy)phenyl)piperidine-1-yl)benzyl)imidazo[1,2-a]pyridine-3-carboxamide], in data set [1], the activity against tuberculosis result is listed as “active against tuberculosis”. For the same compound, the “solubility in aqueous solutions” value in data set [2] is given as “rather low solubility”.

The values are drawn from patent publication US12653787B2, “Pharmaceutical oral dosage form of Q203” (QURIENT CO., LTD., priority 2019, dated 2026).
